# Columns and labels:
# Format in all cases: in vivo, mouse
# [1] = tested on: mice with neutrophilic severe asthma; assay: Peribronchitis and perivascular inflammation in lung tissues (H&E histology) of mice with neutrophilic severe asthma; details: C57BL/6 mice, OVA+LPS-induced asthma; H&E stained lung sections, optical microscope 20×; FIG. 2
# Text: (§1) 8-week old female C57BL/6 mice were purchased from Orient Bio (Sungnam, Korea) and used as experimental animals. Experimental groups were divided into 4 groups and 5 C57BL/6 mice were assigned to each group. Animals in one experimental group were inhaled with saline and treated with vehicle. Animals in the other three experimental groups were sensitized with ovalbumin (OVA) and lipopolysaccharide (LPS), followed by inhalation of ovalbumin to induce asthma. Animals with induced asthma in one experimental group were treated with vehicle 1 hour before the first inhalation of ovalbumin and 6 hours after the last inhalation of ovalbumin. Animals in the other two experimental groups were intraperitoneally administered with 60 μg/kg and 600 g/kg of the PKR inhibitor [6,8-Dihydro-8-(1H-imidazol-5-ylmethylene)-7H-pyrrolo[2,3-g]benzothiazol-7-one] a total of two times, 1 hour before the first inhalation of ovalbumin and 6 hours after the last inhalation of ovalbumin. […]
# [2] = tested on: mice with neutrophilic severe asthma; assay: Bronchial hyperresponsiveness (Rrs) to aerosol methacholine in mice with neutrophilic severe asthma; details: methacholine 5.0 to 50 mg/ml by nebulizer; compared to the group treated with vehicle only; FIG. 3
# Text: as §1, with “ovalbumin.” for “ovalbumin. Animals in the other two experimental groups were intraperitoneally administered with 60 μg/kg and 600 g/kg of the PKR inhibitor [6,8-Dihydro-8-(1H-imidazol-5-ylmethylene)-7H-pyrrolo[2,3-g]benzothiazol-7-one] a total of two times, 1 hour before the first inhalation of ovalbumin and 6 hours after the last inhalation of ovalbumin.”
# In order to identify the effects of the PKR inhibitor of the present invention on bronchial hyperresponsiveness in mouse models with neutrophilic severe asthma, aerosol methacholine was administered into the airways of mice, and then the changes in airway function were measured. […] At the same time, the mice were administered with methacholine through the ventilator while gradually increasing the dose from 5.0 mg/ml to 50 mg/ml using a nebulizer, and the bronchial hyperresponsiveness (Rrs) was continuously measured. The bronchial hyperresponsiveness was assessed as a percentage of the basal value when the maximum of Rrs values measured at each methacholine concentration was administered to saline control, and the results are shown in FIG. 3.
# [3] = tested on: IL-4, IL-5, IL-13, IL-17, KC; assay: Cytokines and chemokines in lung tissues by Western blotting, mice with neutrophilic severe asthma; details: Western blotting of lung tissue proteins; OVA+LPS-induced asthma; FIGS. 4A to 4E
# Text: as §1, with “ovalbumin.” for “ovalbumin. Animals in the other two experimental groups were intraperitoneally administered with 60 μg/kg and 600 g/kg of the PKR inhibitor [6,8-Dihydro-8-(1H-imidazol-5-ylmethylene)-7H-pyrrolo[2,3-g]benzothiazol-7-one] a total of two times, 1 hour before the first inhalation of ovalbumin and 6 hours after the last inhalation of ovalbumin.”
# Quantitation of cytokines and chemokines was confirmed by Western blotting of the proteins in lung tissues. […] Then, the samples were loaded on SDS-PAGE gel and quantitated using an anti-IL-4 antibody (Serotec, UK) against IL-4, an anti-IL-5 antibody (SantaCruz Biotechnology, USA) against IL-5, anti-IL-13 and anti-IL-17 antibodies (R&D Systems, USA) against IL-13 and IL-17, and an anti-KC antibody against keratinocyte-induced chemokine (KC) (BioVision, USA), and the results are shown in FIGS. 4A to 4E.
smiles,measurement,setting,value
"O=C1Nc2ccc3ncsc3c2/C1=C/c1c[nH]cn1 [PKR inhibitor, 6,8-Dihydro-8-(1H-imidazol-5-ylmethylene)-7H-pyrrolo[2,3-g]benzothiazol-7-one]",level of airway inflammation in lung tissues,[1],significantly reduced
same,Rrs values (bronchial hyperresponsiveness),[2],significantly reduced
same,airway resistance dose response curves,[2],shifted to the right
same,"cytokines and chemokines in lung tissues (IL-4, IL-5, IL-13, IL-17, KC)",[3],reduced
